# Experimental data published in patent publication US8415374B2, “Combinations of hepatitis C virus inhibitors” (Bristol-Myers Squibb Company, priority 2009, dated 2013).
# “And” between values parts separate entries of the source, which are not always exact repeats. Equal values may be shown once. Read-outs that look alike come from different tables or passages of the source.
# Legend:
# Assay type in all cases: cell-based, Hepatitis C virus
# [1] = tested on: genotype 1a HCV replicon cells; assay: HCV replicon luciferase assay, genotype 1a (monotherapy and combination studies); settings: genotype 1a replicon, monotherapy, 3 days
# [2] = tested on: genotype 1b HCV replicon cells; assay: HCV replicon luciferase assay, genotype 1b (monotherapy and combination studies)
# Method: (§1) The Huh-7 cell-line used for these studies was obtained from Dr. Ralf Bartenschlager (University of Heidelberg, Heidelberg, Germany) and was propagated in DMEM containing 10% FBS, 10 U/ml penicillin and 10 μg/ml streptomycin. The HCV replicons used in these studies were generated at Bristol-Myers Squibb using the procedure described in WO2004014852. The coding sequence of the published genotype 1b HCV replicon (Lohmann, V., F. Korner, J.-O. Koch, U. Herian, L. Theilmann, and R. Bartenschlager 1999, Science 285:110-113) was synthesized by Operon Technologies, Inc. (Alameda, Calif.) using the sequence set forth in EMBL Accession No. AJ242652, nucleotides 1801 to 7758. The functional replicon was then assembled in plasmid pGem9zf(+) (Promega, Madison, Wis.) using standard molecular biology techniques. To create a replicon encoding a luciferase reporter, the gene encoding humanized Renilla Luciferase protein was introduced upstream of the neomycin phosphotransferase gene. The resulting replicon consists of (i) the HCV 5′ UTR fused to the first 12 amino acids of the capsid protein, (ii) the renilla luciferase gene, (iii) the neomycin phosphotransferase gene (neo), (iv) the IRES from encephalomyocarditis virus (EMCV), and (v) HCV NS3 to NS5B genes and the HCV 3′ UTR.
# (§2) HCV replicon cell lines were isolated from colonies as described by Lohman, et. al (Lohmann, V., F. Korner, J.-O. Koch, U. Herian, L. Theilmann, and R. Bartenschlager 1999, Science 285:110-113) and used for all experiments. Briefly, replicon clones were linearized with ScaI and RNA transcripts synthesized in vitro using the T7 MegaScript transcription kit (Ambion, Austin, Tex.) according to manufacturer's directions. Ten to 20 μg of in vitro transcribed replicon RNA was introduced into 4−5×10^6 Huh-7 cells by transfection with DMRIE-C reagent (Invitrogen Corporation, Carlsbad, Calif.) following manufacturer's protocols. After 24 h, selective media containing 0.5 mg/mL Geneticin (G418, Gibco-BRL, Rockville, Md.) was added and media was changed every 3 to 5 days. After approximately 4 weeks, cells were expanded for further analysis. Cells were maintained at 37° C. in DMEM (Gibco-BRL, Rockville, Md.) with 10% heat inactivated calf serum (Sigma), penicillin/streptomycin, and 0.5 mg/ml G418.
# (§3) To determine compound efficacy, HCV replicon cells were plated at a density of 10^4 per well in 96-well plates in DMEM media containing 10% FBS. Following incubation overnight, compounds serially diluted in DMSO, or DMSO alone, were added to individual wells to a final DMSO concentration of 0.5%. Cell plates were then incubated at 37° C. for 3 days prior to assaying for cytotoxicity and HCV inhibition. Cell viability was measured using an Alamar blue assay and CC50 values were calculated using the median effect equation.
# (§4) Plates were then washed two times with PBS and renilla luciferase activity assayed using a Dual-Glo Luciferase Assay System (Promega Corporation, Madison, Wis.) according to the manufacturer's directions. Plates were read on a TopCount NXT Microplate Scintillation and Luminescence Counter (Packard Instrument Company). The 50% effective concentration (EC50) was calculated by using Excel Fit (Version 2.0, Build 30). Known x (compound concentration) and y (% relative to DMSO-only control wells) values were used to calculate the EC50 with Excel Fit equation 205, represented as y=A+((B−A)/(1+((C/x)^D))), where A and B equal the bottom and top plateaus of the curve, respectively, C equals the x value at the middle of the curve, and D equals the slope factor.
# (§5) For inhibitor combination studies, IFN-α and inhibitors of HCV NS5A and the NS3 protease were each tested at eleven concentrations. Stock solutions, 200 times the desired final assay concentration, were prepared by 3-fold dilution in DMSO prior to addition to cells/media. The compounds were tested as monotherapies and in combinations with the compound of formula (I) at various concentration ratios.
# HCV replicon [3] = assay: HCV replicon luciferase assay, triple combinations with lambda interferons (genotype not stated)
# Method: as §1, §2, §3, §4, §5
# HCV replicon [4] = assay: as above; settings: monotherapy (Table 6)
molecule,measurement,setting,value
C=C[C@@H]1C[C@]1(NC(=O)[C@@H]1C[C@@H](Oc2ncc(OC)c3ccc(Cl)cc23)CN1C(=O)[C@@H](NC(=O)OC(C)(C)C)C(C)(C)C)C(=O)NS(=O)(=O)C1CC1 [NS3 protease inhibitor of formula (II)],EC50,"[1]; Hepatitis C virus, 72 h, read-out: NS3 Protease Inhibitor EC50",7.8 nM
same,EC50,[1]; read-out: NS3 Protease Inhibitor EC50,8.5 nM
same,EC50,"[2]; Hepatitis C virus, 72 h, genotype 1b replicon, monotherapy, 3 days (Table 3), read-out: NS3 Protease Inhibitor EC50",0.5 nM
same,EC50,"[2]; Hepatitis C virus, genotype 1b replicon cells, monotherapy (Table 4), read-out: NS3 Protease Inhibitor EC50",1.3 nM
same,EC50,"[2]; genotype 1b replicon cells, monotherapy (Table 4), read-out: NS3 Protease Inhibitor EC50",2.2 nM and 1.9 nM and 1.5 nM
same,EC50,"[2]; genotype 1b replicon, monotherapy, 3 days (Table 3), read-out: NS3 Protease Inhibitor EC50",0.6 nM
same,EC50,"HCV replicon [3]; Hepatitis C virus, monotherapy (Table 5), read-out: NS3 Protease Inhibitor EC50",0.63 nM
same,EC50,"HCV replicon [3]; Hepatitis C virus, monotherapy (Table 6), read-out: NS3 Protease Inhibitor EC50",1.4 nM
same,EC50,"HCV replicon [3]; monotherapy (Table 5), read-out: NS3 Protease Inhibitor EC50",0.947 nM and 1.1 nM
same,EC50,"HCV replicon [3]; monotherapy (Table 6), read-out: NS3 Protease Inhibitor EC50",1.2 nM and 2.3 nM
COC(=O)N[C@H](C(=O)N1CCC[C@H]1c1ncc(-c2ccc(-c3ccc(-c4cnc([C@@H]5CCCN5C(=O)[C@@H](NC(=O)OC)C(C)C)[nH]4)cc3)cc2)[nH]1)C(C)C [NS5A inhibitor of formula (I)],EC50,"[1]; Hepatitis C virus, 72 h, read-out: NS5A Inhibitor EC50",0.037 nM
same,EC50,[1]; read-out: NS5A Inhibitor EC50,0.045 nM
same,EC50,"[2]; Hepatitis C virus, 72 h, genotype 1b replicon, monotherapy, 3 days (Table 3), read-out: NS5A Inhibitor EC50",0.003 nM
same,EC50,"[2]; Hepatitis C virus, genotype 1b replicon cells, monotherapy (Table 4), read-out: NS5A Inhibitor EC50",0.005 nM
same,EC50,"[2]; genotype 1b replicon cells, monotherapy (Table 4), read-out: NS5A Inhibitor EC50",0.006 nM
same,EC50,"HCV replicon [3]; Hepatitis C virus, monotherapy (Table 5), read-out: NS5A Inhibitor EC50",0.003 nM
same,EC50,"HCV replicon [3]; Hepatitis C virus, monotherapy (Table 6), read-out: NS5A Inhibitor EC50",0.008 nM
same,EC50,"HCV replicon [3]; monotherapy (Table 5), read-out: NS5A Inhibitor EC50",0.004 nM
same,EC50,"HCV replicon [3]; monotherapy (Table 6), read-out: NS5A Inhibitor EC50",0.009 nM and 0.005 nM
rIFNλ1: Recombinant IL-29 expressed in E. coli as a modified N-terminal methionylated form of human IL-29,rIFNλ1 EC50,HCV replicon [4],0.52 ng/mL and 0.27 ng/mL and 0.53 ng/mL
